Data taken from PubChem BioAssay AID977614 (Broad Institute, 2014).
The source made the active and inactive calls.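 Rule for the calls: active = parasite count per well reduced by over 3 SD from the mean, with host cell number above 80% of untreated; inactive = the rest.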

System: L. donovani amastigotes in THP-1 macrophages, DAPI imaging, 72 h
Experiment: antileishmanial activity in infected macrophages – imaging, THP-1 host macrophages, single concentration (AID 977614);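 note: signal is the parasite per host cell ratio from DAPI stained kinetoplasts and nuclei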

| Structure (SMILES) | AC50 |
| --- | --- |
| C[C@H](CO)N1C[C@H](C)[C@@H](CN(C)C(=O)Nc2cccc3ccccc23)OCc2cn(nn2)CCCC1=O | > 10 µM (inactive) |
| COc1ccccc1NC(=O)N1C[C@@H]2[C@H](c3ccccc31)[C@H](CO)N2C(=O)C1CCCC1 | > 10 µM (inactive) |
| O=C(CC(F)(F)F)N1C[C@@H]2[C@H](c3ccccc31)[C@H](CO)N2C(=O)c1ccncc1 | > 10 µM (inactive) |
| COc1ccc(CN2[C@H](CO)[C@H]3c4ccccc4N(C(=O)NC(C)C)C[C@H]32)cc1 | > 10 µM (inactive) |
| COc1ccc(CN(C)C[C@@H]2OCc3cnnn3CCCC(=O)N([C@@H](C)CO)C[C@H]2C)cc1 | > 10 µM (inactive) |
| Cc1noc(C)c1S(=O)(=O)N(C)C[C@@H]1OCc2cnnn2CCCC(=O)N([C@@H](C)CO)C[C@@H]1C | > 10 µM (inactive) |
| O=C(CC(F)(F)F)N1C[C@H]2[C@@H](c3ccccc31)[C@H](CO)N2C(=O)C1CCCCC1 | > 10 µM (inactive) |
| C/C=C/c1ccc([C@H]2[C@@H](CO)N[C@@H]2CN(Cc2cccnc2)C(=O)C2CC2)cc1 | > 10 µM (inactive) |
| O=C(c1ccccn1)N1C[C@H]2[C@@H](c3ccccc31)[C@@H](CO)N2C(=O)C1CCCCC1 | > 10 µM (inactive) |
| CCCC#Cc1ccc([C@H]2[C@@H](CO)N(C(C)=O)[C@H]2CN(C)C(=O)C2CC2)cc1 | > 10 µM (inactive) |
| CCC(=O)N1C[C@@H]2[C@H](c3ccccc31)[C@H](CO)N2C(=O)CC1CC1 | > 10 µM (inactive) |
| CCC(=O)N(CC(C)C)C[C@@H]1[C@@H](c2ccccc2)[C@H](CO)N1C(=O)C1CCC1 | > 10 µM (inactive) |
| CC(=O)N1[C@H](CO)[C@@H](c2ccc(C3=CCCCC3)cc2)[C@@H]1CNC(=O)CN(C)C | > 10 µM (inactive) |
| CNC[C@H]1OCc2cnnn2CCCC(=O)N([C@H](C)CO)C[C@H]1C | > 10 µM (inactive) |
| COCC(=O)N1[C@H](CO)[C@H]2c3ccccc3NC[C@H]21 | > 10 µM (inactive) |
| CC(=O)N1[C@H](CN(C)S(=O)(=O)c2ccccc2)[C@H](c2ccccc2)[C@@H]1CO | > 10 µM (inactive) |
| CC(=O)N1[C@H](CO)[C@H](c2ccc(-c3ccccc3F)cc2)[C@@H]1CNC(C)C | > 10 µM (inactive) |
| COc1ccc(CN2[C@@H]3CNc4ccccc4[C@@H]3[C@@H]2CO)cc1 | > 10 µM (inactive) |
| OC[C@H]1[C@H]2c3ccccc3NC[C@H]2N1Cc1ccccc1Cl | > 10 µM (inactive) |
| C[C@@H]1CN([C@@H](C)CO)C(=O)CCCn2cc(nn2)CO[C@@H]1CN(C)S(=O)(=O)c1ccc(-n2cccn2)cc1 | > 10 µM (inactive) |
| CCC(=O)NC[C@H]1[C@@H](c2ccc(-c3ccc(C#N)cc3)cc2)[C@@H](CO)N1CCC(F)(F)F | > 10 µM (inactive) |
| C[C@@H]1CN([C@H](C)CO)C(=O)CCCn2nncc2CO[C@@H]1CN(C)C(=O)Nc1cccc(Oc2ccccn2)c1 | > 10 µM (inactive) |
| Cc1ccc(S(=O)(=O)N2C[C@@H]3[C@H](c4ccccc42)[C@@H](CO)N3Cc2cccnc2)cc1 | > 10 µM (inactive) |
| CCC(=O)N1C[C@H]2[C@@H](c3ccccc31)[C@@H](CO)N2C(=O)CC1CC1 | > 10 µM (inactive) |
| CCCNC(=O)N1C[C@H]2[C@@H](c3ccccc31)[C@@H](CO)N2Cc1cccc(OC)c1 | > 10 µM (inactive) |
| CN(C[C@@H]1[C@@H](c2ccccc2)[C@H](CO)N1CC1CC1)C(=O)c1ccc(F)cc1 | > 10 µM (inactive) |
| COc1ccc(C(=O)N2C[C@H]3[C@@H](c4ccccc42)[C@H](CO)N3Cc2ccccc2Cl)cc1 | > 10 µM (inactive) |
| C[C@@H]1CN([C@H](C)CO)C(=O)CCCn2cc(nn2)CO[C@H]1CN(C)S(=O)(=O)c1ccc(-n2cccn2)cc1 | > 10 µM (inactive) |

| Structure (SMILES) | AC50 |
| --- | --- |
| C[C@H](CO)N1C[C@H](C)[C@@H](CN(C)Cc2ccccc2)OCc2cn(nn2)CCCC1=O | > 10 µM (inactive) |
| COc1ccc(NC(=O)N2C[C@H]3[C@@H](c4ccccc42)[C@@H](CO)N3Cc2ccccn2)cc1 | > 10 µM (inactive) |
| O=C(C1CCC1)N1C[C@@H]2[C@H](c3ccccc31)[C@H](CO)N2C(=O)Nc1cccc(F)c1 | > 10 µM (inactive) |
| O=C(c1ccccc1F)N1C[C@@H]2[C@H](c3ccccc31)[C@H](CO)N2Cc1ccc2c(c1)OCO2 | > 10 µM (inactive) |
| O=C(Cc1ccccn1)N1[C@@H](CO)[C@@H]2c3ccccc3NC[C@@H]21 | > 10 µM (inactive) |
| CN(C[C@H]1[C@H](c2ccccc2)[C@@H](CO)N1Cc1ccccn1)S(C)(=O)=O | > 10 µM (inactive) |
| CC(C)NC(=O)N1[C@H](CNC(=O)CN(C)C)[C@@H](c2ccccc2)[C@@H]1CO | > 10 µM (inactive) |
| C[C@H]1CN([C@@H](C)CO)C(=O)CCCn2nncc2CO[C@H]1CN(C)Cc1cccc(C(F)(F)F)c1 | > 10 µM (inactive) |
| Cc1cccc(S(=O)(=O)N2C[C@@H]3[C@H](c4ccccc42)[C@H](CO)N3C(=O)c2ccccc2)c1 | > 10 µM (inactive) |
| CC(=O)N1[C@@H](CO)[C@H](c2ccccc2)[C@@H]1CN(CC(C)C)C(=O)c1ccccn1 | > 10 µM (inactive) |
| COc1ccc(CN(C)C[C@@H]2OCc3cnnn3CCCC(=O)N([C@@H](C)CO)C[C@@H]2C)cc1 | > 10 µM (inactive) |
| COc1cccc(NC(=O)N2[C@H](CO)[C@@H](c3ccccc3)[C@H]2CNCC(C)C)c1 | > 10 µM (inactive) |
| COc1ccccc1C(=O)N1C[C@H]2[C@@H](c3ccccc31)[C@@H](CO)N2C(=O)Cc1ccccc1 | > 10 µM (inactive) |
| O=C(CN1CCOCC1)NC[C@@H]1N[C@@H](CO)[C@H]1c1ccc(-c2ccccc2)cc1 | > 10 µM (inactive) |
| CCC(=O)N1[C@@H](CO)[C@@H]2c3ccccc3N(C(=O)c3cnccn3)C[C@@H]21 | > 10 µM (inactive) |
| C[C@@H]1CN([C@H](C)CO)C(=O)CCCn2nncc2CO[C@H]1CN(C)C(=O)c1ccc2ccn(C)c2c1 | > 10 µM (inactive) |
| C/C=C/c1ccc([C@H]2[C@@H](CNC(=O)NC(C)C)N(C(=O)C3CC3)[C@H]2CO)cc1 | > 10 µM (inactive) |
| O=C(CC(F)(F)F)N1C[C@@H]2[C@H](c3ccccc31)[C@@H](CO)N2C(=O)c1ccncc1 | > 10 µM (inactive) |
| CCC(=O)N1[C@H](CO)[C@H]2c3ccccc3N(C(=O)Nc3ccc(Cl)cc3)C[C@H]21 | > 10 µM (inactive) |
| CNC[C@@H]1OCc2cnnn2CCCC(=O)N([C@@H](C)CO)C[C@@H]1C | > 10 µM (inactive) |
| C[C@H](CO)N1C[C@H](C)[C@@H](CN(C)S(=O)(=O)c2cn(C)cn2)OCc2cnnn2CCCC1=O | > 10 µM (inactive) |
| C[C@@H]1CN([C@H](C)CO)C(=O)CCCn2cc(nn2)CO[C@@H]1CN(C)Cc1ccccc1 | > 10 µM (inactive) |
| COc1ccccc1CN1[C@H](CO)[C@H]2c3ccccc3N(C(=O)c3cccnc3)C[C@H]21 | > 10 µM (inactive) |
| CCN(C[C@@H]1[C@H](c2ccccc2)[C@@H](CO)N1C(=O)COC)S(C)(=O)=O | > 10 µM (inactive) |
| CN(C[C@H]1N[C@@H](CO)[C@H]1c1ccc(-c2cccc(F)c2)cc1)C(=O)CC1CC1 | > 10 µM (inactive) |
| O=C(C1CCOCC1)N1C[C@H]2[C@@H](c3ccccc31)[C@H](CO)N2C(=O)Cc1ccccn1 | > 10 µM (inactive) |
| C/C=C/c1ccc([C@@H]2[C@H](CO)N(C(C)=O)[C@H]2CN(CC)C(=O)CN(C)C)cc1 | > 10 µM (inactive) |
